Source: patent publication US9932303B2, “N-hydroxymethanesulfonamide nitroxyl donors” (Cardioxyl Pharmaceuticals, Inc., priority 2014, dated 2018)

Columns and labels:
[1] = In vitro stability in human plasma; type: in vitro ADME; details: male, pH 7.4, 37° C., read-out: T1/2 (minutes) Human
Method: (§1) Certain compounds from Table 1 were tested for their stability in plasma. The assay system comprised (i) PBS, or plasma from rat, dog or human (at least 3 donors, male, pooled) at pH 7.4, and (ii) for tests conducted in plasma, an anticoagulant (sodium heparin or sodium citrate). Each test compound (5 μM) was incubated in PBS or plasma at 37° C. on a THERMOMIXER® with shaking Three samples (n=3) were taken at each of seven sampling time points: 0, 10, 30, 60, 90, 180 and 360 minutes. The samples were immediately combined with 3 volumes (i.e., 3 times the volume of PBS or plasma) of acetonitrile containing 1% formic acid and an internal standard to terminate the reaction. AB SCIEX API 3000 LC-MS/MS analysis of the test compounds was performed without a standard curve. Half-lives (T1/2) of the test compounds were determined from graphs of the percent remaining values using the peak area response ratio.

[2] = In vitro stability in rat plasma; type: in vitro ADME; details: male, pH 7.4, 37° C., read-out: T1/2 (minutes) Rat
Method: as §1

[3] = In vitro stability in dog plasma; type: in vitro ADME; details: male, pH 7.4, 37° C., read-out: T1/2 (minutes) Dog
Method: as §1

[4] = Nitroxyl production via N2O headspace analysis (GC); details: PBS, 37° C.
Text: Nitrous oxide (N2O) is produced via the dimerization and dehydration of HNO, and is the most common marker for nitroxyl production (Fukuto et al., Chem. Res. Toxicol. 18:790-801 (2005)). […] Using either nitrous oxide gas or Angeli's salt (AS) as a standard, the relative amounts of N2O released from N-hydroxymethanesulfonamide nitroxyl donating compounds was examined via gas chromatography (GC) headspace analysis.
A procedure for determining the relative amounts of N2O released from N-hydroxymethanesulfonamide nitroxyl donating compounds is as follows. GC was performed on an Agilent gas chromatograph equipped with a split injector (10:1 splitting), microelectron capture detector, and a HP-MOLSIV 30 m×0.32 mm×25 μm molecular sieve capillary column. Helium was used as the carrier (4 mL/min) gas and nitrogen was used as the make-up (20 mL/min) gas. […]
All determinations used a batch of nominal 20 mL headspace vials with volumes pre-measured for sample uniformity (actual vial volume varied by ≤2.0% relative standard deviation (n=6)). The average vial volume for the batch was determined from six randomly-selected vials by calculating the weight difference between the capped and sealed empty (i.e., air-filled) vial and the capped and sealed deionized water-filled vial using the known density of deionized water, then averaging. […]

[5] = Solid-state stability (appearance, HPLC purity) on storage; type: physicochemical; details: 40° C., 70% RH
Method: Solid, powdered samples of compound 2 (1-(4-chlorophenyl)-N-hydroxymethanesulfonamide) were sealed in double polyethylene bags and stored at 40° C., 70% relative humidity (RH) for up to 3 months. After 2 weeks, 1 month, 2 months, and 3 months of storage, the samples were analyzed for visual appearance and/or purity, as determined by high performance liquid chromatography (HPLC). The HPLC measurement conditions were as follows: • Column: PrimeSep AB, 150×4.6 mm, 5 μm • Injection Volume: 10 μL • Detection Wavelength: 220 nm • Mobile Phase A: 0.3% Trifluoroacetic acid (TFA) in deionized water (DI-H2O) • Mobile Phase B: 0.2% TFA in acetonitrile • Diluent: Acetonitrile • Gradient:
• Flow Rate: 1.0 mL/min • Column Temperature: 30° C.

half-life at 5 μM [1]: 102 min | half-life at 5 μM [2]: 114 min | melting point: 144 °C | half-life at 5 μM [3]: 62 min | Appearance ([5]; 0 Weeks): White | HPLC Purity ([5]; 0 Weeks): 98.912% | HPLC peak at RRT 0.88 ([5]; 0 Weeks): 0.368% | HPLC peak at RRT 1.23 ([5]; 0 Weeks): 0.087% | HPLC peak at RRT 1.35 ([5]; 0 Weeks): 0.633% | Appearance ([5]; 1 Month): White | HPLC Purity ([5]; 1 Month): 95.579% | HPLC peak at RRT 0.88 ([5]; 1 Month): 0.966% | HPLC peak at RRT 1.54 ([5]; 1 Month): 1.959% | HPLC peak at RRT 1.76 ([5]; 1 Month): 0.502% | Appearance ([5]; 2 Months): Off white | HPLC Purity ([5]; 2 Months): 82.665% | HPLC peak at RRT 0.88 ([5]; 2 Months): 3.600% | HPLC peak at RRT 1.53 ([5]; 2 Months): 6.432% | HPLC peak at RRT 1.77 ([5]; 2 Months): 3.234% | Appearance ([5]; 2 Weeks): White | Appearance ([5]; 3 Months): Off white | HPLC Purity ([5]; 3 Months): 76.661% | HPLC peak at RRT 0.88 ([5]; 3 Months): 4.108% | HPLC peak at RRT 1.50 ([5]; 3 Months): 10.123% | HPLC peak at RRT 1.77 ([5]; 3 Months): 3.165%
SMILES: O=S(=O)(Cc1ccc(Cl)cc1)NO [Compound 2, 1-(4-Chlorophenyl)-N-hydroxymethanesulfonamide]
Relative N2O Yield (90 minute incubation) [4]: 24%
